For eleven compounds, IC50 results are on record in patent US10981932B2, “Macrocyclic indole derivatives” (Bayer Aktiengesellschaft, priority 2016, dated 2021).

The target in experiment [1] is T1, BCL-2 (Homo sapiens, UniProt P10415).
T1 construct: BCL-2 (amino acids 1-211, C-terminal fused to a hexahistidine (6×His) tag); purchased BPS Bioscience (San Diego, Calif., USA); host or cells: E. coli
Briefly: Protein-protein interaction assay BCL-2/Bad BH3 peptide (BCL-2 assay), TR-FRET. The format is binding. The note with it: His-BCL-2 / Bad BH3-derived peptide, median. The method, then: Protein-Protein Interaction Assay: BCL-2/Bad BH3 Peptide (BCL-2 Assay)
The dose-dependent inhibition by the compounds described in this invention of the interaction between BCL-2 and the BH3 domain of Bad (both human) was determined using a steady state binding competition assay with time-resolved fluorescence energy transfer (TR-FRET) readout. For that purpose BCL-2 (amino acids 1-211, C-terminal fused to a hexahistidine (6×His) tag and a synthetic Bad BH3-derived peptide of sequence Biotin-PEG2-PEG2-NLWAAQRYGRELRR-Nle-SDEFVDSFKK-amide (SEQ ID NO: 2) served as protein receptor and tracer ligand respectively. The recombinant BCL-2 protein (expressed in E. coli) was purchased from BPS Bioscience (San Diego, Calif., USA). The Bad BH3-derived peptide can be obtained from e.g. Biosyntan (Berlin, Germany).
In the assay 11 different concentrations of each compound (0.1 nM, 0.33 nM, 1.1 nM, 3.8 nM. 13 nM, 44 nM, 0.15 μM, 0.51 μM, 1.7 μM, 5.9 μM and 20 μM) were typically measured as duplicates in the same microtiter plate. For that, 100-fold concentrated DMSO solutions were prepared by serial dilutions (1:3.4) of a 2 mM stock solution in a clear, 384-well microtiter plate (Greiner Bio-One, Frickenhausen, Germany). From there, 50 nl were transferred in a dark test plate (Greiner Bio-One. Frickenhausen, Germany). The assay was initiated by addition of 2 μl of a 2,5-fold concentrated His-BCL-2 solution (usually for a 1 nM end concentration in 5 μl reaction volume) in aqueous assay buffer [50 mM Tris/HCl pH 7, 100 mM sodium chloride (NaCl), 50 mM potassium fluoride (KF), 0.005% Tween-20, 2 mM DTT, 0.1% bovine gamma globulin (BGG)] to the compounds in the assay plate. This was followed by a 10-minute incubation step at 22° C. for pre-equilibration of the putative complex between His-BCL-2 and the compounds.
The mixture was incubated in the dark for one hour at 22° C. and then overnight at 4° C. The formation of BCL-2/Bad complexes was determined by measuring the resonance energy transfer of the anti-His-Eu-cryptate antibody to the streptavidin-XL665 present in the reaction. For that purpose, the fluorescence emission at 620 nm and 665 nm after excitation at 330-350 nm was measured in a TR-FRET measuring instrument, for instance a Rubystar or a Pherastar (both from BMG Lab Technologies. Offenburg, Germany) or a Viewlux (Perkin-Elmer). The ratio of the emission at 665 nm and at 622 nm was used as indicator of the amount of BCL-2/Bad complexes present.
The resulting data (ratio) were normalized, taking 0% inhibition as the mean value of control measurements (usually 32 data points) where all reagents were included. In this case 50 nl DMSO were used instead of compounds. A 100% inhibition corresponded to the mean value of control measurements (usually 32 data points) where all reagents except BCL-2 were included. IC50 values were determined by regression analysis based on a 4 parameter equation (minimum, maximum, IC50, Hill; Y=Max+(Min−Max)/(1+(X/IC50)^Hill) using the Screener Software (Genedata).

For experiment [2], the system named is SUDHL10. Briefly: Anti-proliferative effect (CellTiter-Glo, 72 h), SUDHL10. The experiment is classed as cell-based. The note with it: SUDHL10 cells, antiproliferation, 72 h incubation, median, read-out: Antiproli SUDHL10 [M] (median). The method in brief: (§1)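 72 h compound treatment, 37 °C humidified; CellTiter-Glo added, 10 min incubation, luminescence read; day 0 plate read in parallel for baseline.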
Background: Cellular ATP, detected with luciferase, serves as a proxy for viable cell number.

Experiment [3] relates to OPM2. Briefly: Anti-proliferative effect (CellTiter-Glo, 72 h), OPM2. The experiment is classed as cell-based. As to conditions: OPM2 cells, median, read-out: IC50 antiproliferation assay OPM2 [M] (median). Put shortly: as §1
The subject of experiment [4] is MV-4-11. Briefly: Anti-proliferative effect (CellTiter-Glo, 72 h), MV-4-11. The format is cell-based. As to conditions: MV-4-11 cells, median, read-out: IC50 antiproliferation assay MV-4-11 [M] (median). The method in brief:
as §1

Structures can show the parent of a compound that is named as a salt. Where two headings read alike, the source gives them in different places. Bounds are passed on as bounds.

T1 sequence (P10415 1-211): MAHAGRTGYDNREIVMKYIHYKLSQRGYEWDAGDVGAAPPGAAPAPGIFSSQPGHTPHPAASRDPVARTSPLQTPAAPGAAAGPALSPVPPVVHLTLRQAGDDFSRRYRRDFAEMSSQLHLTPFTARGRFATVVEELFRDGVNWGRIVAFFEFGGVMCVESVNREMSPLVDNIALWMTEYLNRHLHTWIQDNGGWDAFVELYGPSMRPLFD

As for `CC(C)OCc1nn(C)c2c1-c1cccc3c(CCCOc4cccc5ccccc45)c(C(=O)O)n(c13)CCCCN(C)C2` (single isomer, unassigned) [Example 1-74, 1,14-dimethyl-7-[3-(naphthalen-1-yloxy)propyl]-3-[(propan-2-yloxy)methyl]-10,11,12,13,14,15-hexahydro-1H-pyrazolo[3′,4′:8,9][1,6]diazacycloundecino[10,11,1-hi]indole-8-carboxylic Acid], the IC50 is greater than 20 µM in experiment [1]; 1.17e-05 M in experiment [2] (Homo sapiens, SU-DHL10, 72 h); 1.6e-05 M in experiment [3] (Homo sapiens, OPM-2, 72 h).
`Cn1nc(COc2ccc(N3CCN(C(=O)C4CC4)CC3)cc2)c2c1COCCCCn1c(C(=O)O)c(CCCOc3cccc4ccccc34)c3cccc-2c31` (single isomer, unassigned; enantiomer 1) [Example 1-22, 3-({4-[4-(cyclopropylcarbonyl)piperazin-1-yl]phenoxy}methyl)-1-methyl-7-[3-(naphthalen-1-yloxy)propyl]-1,10,11,12,13,15-hexahydropyrazolo[4′,3′:9,10][1,6]oxazacycloundecino[8,7,6-hi]indole-8-carboxylic Acid (Enantiomer 1)]: the IC50 in experiment [1] is greater than 20 µM; in experiment [2], 2.19e-06 M; in experiment [3], 2.56e-06 M.
As for `Cc1nn(C)c2c1-c1cccc3c(CCCOc4cccc5ccccc45)c(C(=O)O)n(c13)CCCN(C)C2` (single isomer, unassigned; enantiomer 1) [Example 1-31, 7,9,11-trimethyl-1-[3-(naphthalen-1-yloxy)propyl]-4,5,6,7,8,9-hexahydropyrazolo[3′,4′:7,8][1,5]diazecino[9,10,1-hi]indole-2-carboxylic Acid-N-ethylethanamine Salt (Enantiomer 1)], the IC50 in experiment [1] was greater than 20 µM; in experiment [2], 4.55e-06 M; in experiment [3], 1.05e-05 M; in experiment [4] (Homo sapiens, MV4-11, 72 h), 2.61e-06 M.
Take `Cc1c2c(nn1C)COCCCCn1c(C(=O)O)c(CCCOc3cccc4ccccc34)c3cccc-2c31` (single isomer, unassigned; enantiomer 1) [Example 1-37, (+)-2,3-dimethyl-7-[3-(naphthalen-1-yloxy)propyl]-2,10,11,12,13,15-hexahydropyrazolo[4′,3′:9,10][1,6]oxazacycloundecino[8,7,6-hi]indole-8-carboxylic Acid (Enantiomer 1)]: the IC50 in experiment [1] is greater than 20 µM; in experiment [2] it was 3e-06 M; in experiment [3], 6.53e-06 M; in experiment [4] (Homo sapiens, MV4-11, 72 h), 4.02e-06 M.
Regarding `CN1CCCn2c(C(=O)O)c(CCCOc3cccc4ccccc34)c3cccc(c32)-c2c(CN3CCOCC3)nn(C)c2C1` (single isomer, unassigned; enantiomer 1) [Example 1-43, (+)-7,9-dimethyl-11-(morpholin-4-ylmethyl)-1-[3-(naphthalen-1-yloxy)propyl]-4,5,6,7,8,9-hexahydropyrazolo[3′,4′:7,8][1,5]diazecino[9,10,1-hi]indole-2-carboxylic Acid (Enantiomer 1)], the IC50 in experiment [1] is greater than 20 µM; in experiment [2] (Homo sapiens, SU-DHL10, 72 h) it was 8.34e-06 M; in experiment [3] (Homo sapiens, OPM-2, 72 h), 1.81e-05 M; in experiment [4] (Homo sapiens, MV4-11, 72 h), 6.59e-06 M.
Consider `CN1CCCn2c(C(=O)O)c(CCCOc3cccc4ccccc34)c3cccc(c32)-c2c(COc3ccc(N4CCN(S(C)(=O)=O)CC4)cc3)nn(C)c2C1` (single isomer, unassigned; enantiomer 1) [Example 1-46, (+)-7,9-dimethyl-11-({4-[4-(methylsulfonyl)piperazin-1-yl]phenoxy}methyl)-1-[3-(naphthalen-1-yloxy)propyl]-4,5,6,7,8,9-hexahydropyrazolo[3′,4′:7,8][1,5]diazecino[9,10,1-hi]indole-2-carboxylic Acid (Enantiomer 1)], for which the IC50 in experiment [1] is 2.34 µM; in experiment [2] it was 8.61e-07 M; in experiment [3] it was 1.52e-06 M; in experiment [4] (Homo sapiens, MV4-11, 72 h) it was 7.2e-07 M.
Take `Cc1nn(C)c2c1-c1cccc3c(CCCOc4cccc5cc(F)ccc45)c(C(=O)O)n(c13)CCCOC2` (single isomer, unassigned; enantiomer 1) [Example 047, 1-{3-[(6-fluoronaphthalen-1-yl)oxy]propyl}-9,11-dimethyl-5,6,8,9-tetrahydro-4H-pyrazolo[4′,3′:8,9][1,5]oxazecino[7,6,5-hi]indole-2-carboxylic acid-N-ethylethanamine Salt (Enantiomer 1)]: the results for the IC50 in experiment [1], in experiment [2] and in experiment [4] were greater than 20 µM, 3.61e-06 M and 5.38e-06 M, respectively.
For the compound `COCCn1nc2c(c1CN1CCOCC1)-c1cccc3c(CCCOc4cccc5ccccc45)c(C(=O)O)n(c13)CCCN(C)C2` (single isomer, unassigned; enantiomer 1) [Example 057, 10-(2-methoxyethyl)-7-methyl-11-(morpholin-4-ylmethyl)-1-[3-(naphthalen-1-yloxy)propyl]-4,5,6,7,8,10-hexahydropyrazolo[3′,4′:7,8][1,5]diazecino[9,10,1-hi]indole-2-carboxylic Acid (Enantiomer 1)], the IC50 in experiment [1] is greater than 20 µM; in experiment [2] (Homo sapiens, SU-DHL10, 72 h), 1.21e-05 M; in experiment [3] (Homo sapiens, OPM-2, 72 h), greater than 3.3e-05 M.
With `Cc1c2c(nn1CCN1CCOCC1)CN(C)CCCn1c(C(=O)O)c(CCCOc3cccc4ccccc34)c3cccc-2c31` (single isomer, unassigned; enantiomer 1) [Example 060, 7,11-dimethyl-10-[2-(morpholin-4-yl)ethyl]-1-[3-(naphthalen-1-yloxy)propyl]-4,5,6,7,8,10-hexahydropyrazolo[3′,4′:7,8][1,5]diazecino[9,10,1-hi]indole-2-carboxylic Acid (Enantiomer 1)], the IC50 in experiment [1] is greater than 20 µM; in experiment [2] (Homo sapiens, SU-DHL10, 72 h), 1.16e-05 M; in experiment [3] (Homo sapiens, OPM-2, 72 h), 1.27e-05 M.
Consider `COCc1nn(C)c2c1-c1cccc3c(CCCOc4cccc5ccccc45)c(C(=O)O)n(c13)CCCN(C)C2` (single isomer, unassigned; enantiomer 2) [Example 1-104, 11-(methoxymethyl)-7,9-dimethyl-1-[3-(1-naphthyloxy)propyl]-4,5,6,7,8,9-hexahydropyrazolo[3′,4′:7,8][1,5]diazecino[9,10,1-hi]indole-2-carboxylic Acid (Enantiomer 2)], for which the IC50 was greater than 20 µM in experiment [1] and 4.44e-06 M in experiment [4] (Homo sapiens, MV4-11, 72 h).
Regarding `Cc1ccc2c(CCCOc3cccc4ccccc34)c(C(=O)O)n3c2c1-c1c(nn(C)c1C)CN(C)CCC3` (single isomer, unassigned; enantiomer 2) [Example 074, 7,10,11,12-tetramethyl-1-[3-(naphthalen-1-yloxy)propyl]-4,5,6,7,8,10-hexahydropyrazolo[3′,4′:7,8][1,5]diazecino[9,10,1-hi]indole-2-carboxylic Acid (Enantiomer 2)], the IC50 in experiment [1] was greater than 20 µM; in experiment [2], 1.26e-05 M; in experiment [4] (Homo sapiens, MV4-11, 72 h) it was 7.04e-06 M.
